Laboratory results: patent EP4813979A1, “COMPOUND FOR EGFR PROTEIN DEGRADATION AND USE THEREOF” (TYK Medicines, Inc., priority 2023, dated 2025)

tested on: H1975; experiment: Cell anti-proliferation experiment (CTG); format: cell-based; settings: Homo sapiens, NCI-H1975, 72 h, H1975 (EGFR T790M/L858R), class symbol
Text: (§1) H1975 has an EGFR: T790M/L858R double mutation, PC-9 has an EGFR exon 19 deletion, and HCC827 has an exon 19 deletion mutation. Baf3-19del- T790M -C797S (Baf3-DTC) is a stable Ba/F3 clone expressing exogenous EGFR gene bearing T790M, C797S, and […] triple amino acid mutations, purchased from KYinno. Baf3-L858R-T790M - C797S (Baf3-LTC) is a stable Ba/F3 clone expressing exogenous EGFR gene bearing […], T790M, and C797S triple mutations, purchased from KYinno. A549 is a wild-type EGFR, purchased from Nanjing Kebai Biotechnology. A431 is a wild-type EGFR, purchased from Shanghai Xinyu Biotechnology. CellCounting-Lite2.0, Trypsin EDTA, 37°C CO2 incubator, cell counter, EnVision Serial No. 1050454.
(§2) • A) Digested logarithmic phase cells with Trypsin EDTA, added culture medium to stop the reaction, and mixing well with a pipette to prepare a cell suspension. • B) Used Vi-cell to determine cell concentration, and prepared a suspension of 15,000-25,000 cells per milliliter according to the experimental purpose and cell characteristics. • C) After prepared the cell suspension, mixed it gently and added 100 µL to each well, so that the cell density to be tested is 1500-2500 per well.
(§3) • A) Weighed approximately 2 mg the compound and calculated the required volume of DMSO according to the formula: Compound mass (mg) * Compound purity (%) / Compound molecular weight * 1000. • B) Placed the inoculated cell culture plate into an incubator and incubated for about 24 hours. Then added compounds of varying concentrations. • C) Diluted the 10mM compound stock solution to […] with culture medium, and added the […] compound solution to the second column of the deep well plate in sequence, and added […] culture medium containing 0.5% DMSO to the third to eleventh columns. • D) Gradient dilution: Taked 125 µL solution from the second column and added it to the third column, mix well; then taked 125 µL solution from the third column and added it to the fourth column, repeated this operation until the tenth column. • E) Used a multichannel pipette, aspirated 25 µL the compound from the deep-well plate and added it to a 96-well culture plate. Repeated this process three times for each compound on the 96-well plate. This will ultimately create a concentration gradient of up to 10,000 nM at a 1:4 ratio on the 96-well plate.
(§4) • A) The effects of the compound were observed under an inverted microscope after the 96-well plate was incubated in an incubator for 72 hours. • B) Added 25 µL CTG solution to each well, placed on a shaker for 10 minutes, and read the […] of each well.
(§5) Calculate the % Cell Viability using the following formula: %Cell Viability = 100% × (Lum_Sample−Lum_LC)/(Lum_HC−Lum_LC) [formula] • Lum_HC: Cell readings from the 0.1% DMSO control group • Lum_Sample: Cell readings with added compound • Lum_LC: Blank culture medium reading
(§6) The IC50 value was obtained by curve fitting using GraphPad Prism 8 software.

Compound | IC50 [nM]
CCc1cc(Nc2ncc(Br)c(Nc3ccccc3P(C)(C)=O)n2)c(OC)cc1N1CCC2(CC1)CN(C(=O)CN1CCC(c3cc4c(cc3F)c(N3CCC(=O)NC3=O)nn4C)C(F)(F)C1)C2 (centres unmarked) [TC-226] | 100 to 1000
CCc1cc(Nc2ncc(Br)c(Nc3ccc(OC4CC4)cc3P(C)(C)=O)n2)c(OC)cc1N1CC2(CCN(C(=O)CN3CCC(c4cc5c(cc4F)c(N4CCC(=O)NC4=O)nn5C)C(F)(F)C3)CC2)C1 (centres unmarked) [TC-232] | 10 to 100

tested on: PC-9; experiment: Cell anti-proliferation experiment (CTG); format: cell-based; settings: Homo sapiens, PC-9, 72 h, PC-9 (EGFR exon 19 deletion), class symbol
Text: as §1, §2, §3, §4, §5, §6

Compound | IC50 [nM]
CCc1cc(Nc2ncc(Br)c(Nc3ccccc3P(C)(C)=O)n2)c(OC)cc1N1CCC2(CC1)CN(C(=O)CN1CCC(c3cc4c(cc3F)c(N3CCC(=O)NC3=O)nn4C)C(F)(F)C1)C2 (centres unmarked) [TC-226] | 100 to 1000
CCc1cc(Nc2ncc(Br)c(Nc3ccc(OC4CC4)cc3P(C)(C)=O)n2)c(OC)cc1N1CC2(CCN(C(=O)CN3CCC(c4cc5c(cc4F)c(N4CCC(=O)NC4=O)nn5C)C(F)(F)C3)CC2)C1 (centres unmarked) [TC-232] | 100 to 1000

tested on: A549; experiment: Cell anti-proliferation experiment (CTG); format: cell-based; settings: Homo sapiens, A549, 72 h, A549 (wild-type EGFR), class symbol
Text: as §1, §2, §3, §4, §5, §6

Compound | IC50 [nM]
CCc1cc(Nc2ncc(Br)c(Nc3ccccc3P(C)(C)=O)n2)c(OC)cc1N1CCC2(CC1)CN(C(=O)CN1CCC(c3cc4c(cc3F)c(N3CCC(=O)NC3=O)nn4C)C(F)(F)C1)C2 (centres unmarked) [TC-226] | 100 to 1000
CCc1cc(Nc2ncc(Br)c(Nc3ccc(OC4CC4)cc3P(C)(C)=O)n2)c(OC)cc1N1CC2(CCN(C(=O)CN3CCC(c4cc5c(cc4F)c(N4CCC(=O)NC4=O)nn5C)C(F)(F)C3)CC2)C1 (centres unmarked) [TC-232] | > 1000

tested on: Baf3-L858R-T790M - C797S (Baf3-LTC); experiment: Cell anti-proliferation experiment (CTG); format: cell-based; settings: 72 h, class symbol
Text: as §1, §2, §3, §4, §5, §6

Compound | IC50 [nM]
CCc1cc(Nc2ncc(Br)c(Nc3ccccc3P(C)(C)=O)n2)c(OC)cc1N1CCC2(CC1)CN(C(=O)CN1CCC(c3cc4c(cc3F)c(N3CCC(=O)NC3=O)nn4C)C(F)(F)C1)C2 (centres unmarked) [TC-226] | < 10
CCc1cc(Nc2ncc(Br)c(Nc3ccc(OC4CC4)cc3P(C)(C)=O)n2)c(OC)cc1N1CC2(CCN(C(=O)CN3CCC(c4cc5c(cc4F)c(N4CCC(=O)NC4=O)nn5C)C(F)(F)C3)CC2)C1 (centres unmarked) [TC-232] | < 10

tested on: Baf3-19del- T790M -C797S (Baf3-DTC); experiment: Cell anti-proliferation experiment (CTG); format: cell-based; settings: 72 h, class symbol
Text: as §1, §2, §3, §4, §5, §6

Compound | IC50 [nM]
CCc1cc(Nc2ncc(Br)c(Nc3ccccc3P(C)(C)=O)n2)c(OC)cc1N1CCC2(CC1)CN(C(=O)CN1CCC(c3cc4c(cc3F)c(N3CCC(=O)NC3=O)nn4C)C(F)(F)C1)C2 (centres unmarked) [TC-226] | < 10
CCc1cc(Nc2ncc(Br)c(Nc3ccc(OC4CC4)cc3P(C)(C)=O)n2)c(OC)cc1N1CC2(CCN(C(=O)CN3CCC(c4cc5c(cc4F)c(N4CCC(=O)NC4=O)nn5C)C(F)(F)C3)CC2)C1 (centres unmarked) [TC-232] | < 10

tested on: A431; experiment: Cell anti-proliferation experiment (CTG); format: cell-based; settings: Homo sapiens, A-431, 72 h, A431 (wild-type EGFR), class symbol
Text: as §1, §2, §3, §4, §5, §6

Compound | IC50 [nM]
CCc1cc(Nc2ncc(Br)c(Nc3ccccc3P(C)(C)=O)n2)c(OC)cc1N1CCC2(CC1)CN(C(=O)CN1CCC(c3cc4c(cc3F)c(N3CCC(=O)NC3=O)nn4C)C(F)(F)C1)C2 (centres unmarked) [TC-226] | > 1000
CCc1cc(Nc2ncc(Br)c(Nc3ccc(OC4CC4)cc3P(C)(C)=O)n2)c(OC)cc1N1CC2(CCN(C(=O)CN3CCC(c4cc5c(cc4F)c(N4CCC(=O)NC4=O)nn5C)C(F)(F)C3)CC2)C1 (centres unmarked) [TC-232] | > 1000

tested on: HCC827; experiment: Cell anti-proliferation experiment (CTG); format: cell-based; settings: Homo sapiens, HCC827, 72 h, HCC827 (exon 19 deletion), class symbol
Text: as §1, §2, §3, §4, §5, §6

Compound | IC50 [nM]
CCc1cc(Nc2ncc(Br)c(Nc3ccccc3P(C)(C)=O)n2)c(OC)cc1N1CCC2(CC1)CN(C(=O)CN1CCC(c3cc4c(cc3F)c(N3CCC(=O)NC3=O)nn4C)C(F)(F)C1)C2 (centres unmarked) [TC-226] | 100 to 1000
CCc1cc(Nc2ncc(Br)c(Nc3ccc(OC4CC4)cc3P(C)(C)=O)n2)c(OC)cc1N1CC2(CCN(C(=O)CN3CCC(c4cc5c(cc4F)c(N4CCC(=O)NC4=O)nn5C)C(F)(F)C3)CC2)C1 (centres unmarked) [TC-232] | 10 to 100

target: EGFR in Baf3-L858R-T790M-C797S (Homo sapiens, UniProt P00533, C797S/L858R/T790M); experiment: EGFR PROTAC HTRF experiment (total EGFR degradation); format: cell-based; settings: Baf3-LTC, incubated 16 hours, HTRF total EGFR; read-out: Baf3-LTC DC50
Experimental: (§7) [table] Among them, B[…] -C797S (abbreviated as Baf3-DTC) is a stable Ba/F3 clone expressing exogenous EGFR gene bearing T790M, C797S and […] triple amino acid mutations, purchased from KYinno; Baf3-L858R-T790M - C797S (abbreviated as Baf3-LTC) is a stable Ba/F3 clone expressing exogenous EGFR gene bearing […], T790M, C797S triple mutations, purchased from KYinno. [table] [table] Dilutded Eu and d2 antibodies 2μl per well with detection buffer 20-fold. Then mixed the two antibody vials thoroughly. [table] Opened EnVision , locate the HTRF program, configured the board, and then read […]. The fitted curve, DC50 and Dmax of this compound could be generated using GraphPad Prism .

Chain of EGFR in Baf3-L858R-T790M-C797S (P00533 25-1210 T790M/C797S/L858R): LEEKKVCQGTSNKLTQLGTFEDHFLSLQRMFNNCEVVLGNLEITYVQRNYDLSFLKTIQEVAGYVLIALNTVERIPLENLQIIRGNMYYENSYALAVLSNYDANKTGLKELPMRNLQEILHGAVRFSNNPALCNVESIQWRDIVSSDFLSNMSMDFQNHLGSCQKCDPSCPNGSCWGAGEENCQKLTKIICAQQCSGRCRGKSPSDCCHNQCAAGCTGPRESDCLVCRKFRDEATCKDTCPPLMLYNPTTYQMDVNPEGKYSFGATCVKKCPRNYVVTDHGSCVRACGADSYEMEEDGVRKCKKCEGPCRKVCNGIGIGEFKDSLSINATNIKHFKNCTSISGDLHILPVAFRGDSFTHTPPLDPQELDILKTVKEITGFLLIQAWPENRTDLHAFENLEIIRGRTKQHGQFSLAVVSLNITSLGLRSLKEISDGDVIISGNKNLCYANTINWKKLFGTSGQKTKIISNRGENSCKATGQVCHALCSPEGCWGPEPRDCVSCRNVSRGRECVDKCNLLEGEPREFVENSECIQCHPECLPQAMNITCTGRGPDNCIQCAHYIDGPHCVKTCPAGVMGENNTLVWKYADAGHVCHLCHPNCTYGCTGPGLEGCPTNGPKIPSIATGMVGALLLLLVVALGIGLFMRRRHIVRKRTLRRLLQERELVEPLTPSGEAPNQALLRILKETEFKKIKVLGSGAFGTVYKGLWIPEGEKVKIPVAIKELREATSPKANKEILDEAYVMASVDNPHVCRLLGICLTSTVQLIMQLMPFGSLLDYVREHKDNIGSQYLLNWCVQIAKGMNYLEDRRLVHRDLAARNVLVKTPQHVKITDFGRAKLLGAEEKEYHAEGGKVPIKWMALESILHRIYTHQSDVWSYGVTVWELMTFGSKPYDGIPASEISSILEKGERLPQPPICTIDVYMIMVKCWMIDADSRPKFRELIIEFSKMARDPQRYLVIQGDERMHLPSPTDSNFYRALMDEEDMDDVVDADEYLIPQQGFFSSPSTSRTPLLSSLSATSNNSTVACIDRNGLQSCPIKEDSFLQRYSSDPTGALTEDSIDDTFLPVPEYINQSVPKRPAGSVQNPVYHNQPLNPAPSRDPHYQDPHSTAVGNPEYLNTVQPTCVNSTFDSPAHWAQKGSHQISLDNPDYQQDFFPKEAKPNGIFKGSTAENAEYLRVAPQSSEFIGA

Compound | DC50 [nM]
CCc1cc(Nc2ncc(Cl)c(Nc3ccc(Cl)cc3C(C)(C)O)n2)c(OC)cc1N1CCN(C(=O)CN2CCC(c3cc4c(cc3F)c(N3CCC(=O)NC3=O)nn4C)C(F)(F)C2)CC1 (centres unmarked) [TA-009] | 100 to 1000
CCc1cc(Nc2ncc(Cl)c(Nc3ccc(OC)cc3C(C)=O)n2)c(OC)cc1N1CCN(C(=O)CN2CCC(c3cc4c(cc3F)c(N3CCC(=O)NC3=O)nn4C)C(F)(F)C2)CC1 (centres unmarked) [TA-017] | 100 to 1000
CCc1cc(Nc2ncc(Cl)c(Nc3ccccc3P(C)(C)=O)n2)c(OC)cc1N1CCN(C(=O)CN2CCC(c3cc4c(cc3F)c(N3CCC(=O)NC3=O)nn4C)C(F)(F)C2)[C@@H](C)C1 (some centres unmarked) [TA-025] | 10 to 100

same assay, conditions: Baf3-LTC, incubated 16 hours, HTRF total EGFR; read-out: Baf3-LTC Dmax

Compound | Dmax [%]
CCc1cc(Nc2ncc(Cl)c(Nc3ccc(Cl)cc3C(C)(C)O)n2)c(OC)cc1N1CCN(C(=O)CN2CCC(c3cc4c(cc3F)c(N3CCC(=O)NC3=O)nn4C)C(F)(F)C2)CC1 (centres unmarked) [TA-009] | 70 to 100
CCc1cc(Nc2ncc(Cl)c(Nc3ccc(OC)cc3C(C)=O)n2)c(OC)cc1N1CCN(C(=O)CN2CCC(c3cc4c(cc3F)c(N3CCC(=O)NC3=O)nn4C)C(F)(F)C2)CC1 (centres unmarked) [TA-017] | 70 to 100
CCc1cc(Nc2ncc(Cl)c(Nc3ccccc3P(C)(C)=O)n2)c(OC)cc1N1CCN(C(=O)CN2CCC(c3cc4c(cc3F)c(N3CCC(=O)NC3=O)nn4C)C(F)(F)C2)[C@@H](C)C1 (some centres unmarked) [TA-025] | 70 to 100

target: EGFR in Baf3-19del-T790M-C797S (Homo sapiens, UniProt P00533, C797S/DEL746-750/T790M); experiment: as above; format: cell-based; settings: Baf3-DTC, incubated 16 hours, HTRF total EGFR; read-out: Baf3-DTC DC50
Experimental: as §7

Chain of EGFR in Baf3-19del-T790M-C797S (P00533 with tags, fused parts or gaps DEL746-750/T790M/C797S): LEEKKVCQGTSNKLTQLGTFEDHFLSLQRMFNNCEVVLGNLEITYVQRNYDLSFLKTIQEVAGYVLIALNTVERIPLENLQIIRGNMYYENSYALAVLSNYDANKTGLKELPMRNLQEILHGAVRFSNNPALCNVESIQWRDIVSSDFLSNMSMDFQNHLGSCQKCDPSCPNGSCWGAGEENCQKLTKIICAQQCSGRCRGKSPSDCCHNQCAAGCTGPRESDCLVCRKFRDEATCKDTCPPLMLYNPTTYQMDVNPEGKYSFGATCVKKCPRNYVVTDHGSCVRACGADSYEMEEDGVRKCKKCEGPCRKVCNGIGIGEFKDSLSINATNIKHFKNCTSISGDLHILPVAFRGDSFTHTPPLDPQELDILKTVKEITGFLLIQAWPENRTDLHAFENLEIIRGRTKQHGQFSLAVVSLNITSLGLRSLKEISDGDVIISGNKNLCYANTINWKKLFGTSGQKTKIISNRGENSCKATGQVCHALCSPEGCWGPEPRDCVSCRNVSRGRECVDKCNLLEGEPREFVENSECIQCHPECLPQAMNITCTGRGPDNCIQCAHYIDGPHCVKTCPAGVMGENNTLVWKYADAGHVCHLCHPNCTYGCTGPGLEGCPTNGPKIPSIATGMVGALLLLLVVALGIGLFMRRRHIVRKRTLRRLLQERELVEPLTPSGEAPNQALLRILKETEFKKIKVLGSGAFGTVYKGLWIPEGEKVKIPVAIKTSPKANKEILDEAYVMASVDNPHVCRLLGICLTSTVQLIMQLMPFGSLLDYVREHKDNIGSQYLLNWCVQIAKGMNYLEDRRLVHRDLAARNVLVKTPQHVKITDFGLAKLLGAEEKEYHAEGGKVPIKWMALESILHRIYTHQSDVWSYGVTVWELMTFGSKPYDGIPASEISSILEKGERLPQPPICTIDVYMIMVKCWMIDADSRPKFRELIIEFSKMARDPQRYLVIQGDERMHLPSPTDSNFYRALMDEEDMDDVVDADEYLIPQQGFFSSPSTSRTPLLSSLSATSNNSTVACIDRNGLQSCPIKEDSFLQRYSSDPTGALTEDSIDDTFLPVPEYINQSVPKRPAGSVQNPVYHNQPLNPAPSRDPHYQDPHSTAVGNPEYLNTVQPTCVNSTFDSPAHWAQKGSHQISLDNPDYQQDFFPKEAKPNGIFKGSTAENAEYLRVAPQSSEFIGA

Compound | DC50 [nM]
CCc1cc(Nc2ncc(Cl)c(Nc3ccc(Cl)cc3C(C)(C)O)n2)c(OC)cc1N1CCN(C(=O)CN2CCC(c3cc4c(cc3F)c(N3CCC(=O)NC3=O)nn4C)C(F)(F)C2)CC1 (centres unmarked) [TA-009] | 100 to 1000
CCc1cc(Nc2ncc(Cl)c(Nc3ccc(OC)cc3C(C)=O)n2)c(OC)cc1N1CCN(C(=O)CN2CCC(c3cc4c(cc3F)c(N3CCC(=O)NC3=O)nn4C)C(F)(F)C2)CC1 (centres unmarked) [TA-017] | 100 to 1000
CCc1cc(Nc2ncc(Cl)c(Nc3ccccc3P(C)(C)=O)n2)c(OC)cc1N1CCN(C(=O)CN2CCC(c3cc4c(cc3F)c(N3CCC(=O)NC3=O)nn4C)C(F)(F)C2)[C@@H](C)C1 (some centres unmarked) [TA-025] | 10 to 100

same assay, conditions: Baf3-DTC, incubated 16 hours, HTRF total EGFR; read-out: Baf3-DTC Dmax

Compound | Dmax [%]
CCc1cc(Nc2ncc(Cl)c(Nc3ccc(Cl)cc3C(C)(C)O)n2)c(OC)cc1N1CCN(C(=O)CN2CCC(c3cc4c(cc3F)c(N3CCC(=O)NC3=O)nn4C)C(F)(F)C2)CC1 (centres unmarked) [TA-009] | 70 to 100
CCc1cc(Nc2ncc(Cl)c(Nc3ccc(OC)cc3C(C)=O)n2)c(OC)cc1N1CCN(C(=O)CN2CCC(c3cc4c(cc3F)c(N3CCC(=O)NC3=O)nn4C)C(F)(F)C2)CC1 (centres unmarked) [TA-017] | 70 to 100
CCc1cc(Nc2ncc(Cl)c(Nc3ccccc3P(C)(C)=O)n2)c(OC)cc1N1CCN(C(=O)CN2CCC(c3cc4c(cc3F)c(N3CCC(=O)NC3=O)nn4C)C(F)(F)C2)[C@@H](C)C1 (some centres unmarked) [TA-025] | 70 to 100
